Laboratory results from US20210214375A1 (LUNDBECK LA JOLLA RESEARCH CENTER, INC., priority 2017, published 2021).
Like-named read-outs stand apart in the source and are kept apart here.

Assays:
[1] = molecular target: T1, MAGL (Homo sapiens, UniProt Q99685); test: In vitro competitive activity-based protein profiling (gel-based, FP-Rh or HT-01 probe); format: biochemical
T1 construct: Proteomes (human prefrontal cortex or cell membrane fractions); from tissue
T1 sequence (Q99685 1-303): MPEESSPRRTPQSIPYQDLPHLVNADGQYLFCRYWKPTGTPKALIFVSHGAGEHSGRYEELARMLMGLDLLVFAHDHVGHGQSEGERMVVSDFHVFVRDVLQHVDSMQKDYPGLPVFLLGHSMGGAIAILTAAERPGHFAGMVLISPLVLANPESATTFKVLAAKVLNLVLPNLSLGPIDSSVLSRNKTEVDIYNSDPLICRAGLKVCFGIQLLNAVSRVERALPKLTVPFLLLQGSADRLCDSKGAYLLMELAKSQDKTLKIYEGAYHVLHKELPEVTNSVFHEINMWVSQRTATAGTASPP
Procedure, shortened: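 Human prefrontal cortex or cell membrane proteomes (1.0 mg/mL protein) preincubated with varying inhibitor concentrations 30 min at 37° C. FP-Rh or HT-01 probe (1.0 μL of 50 μM stock) then added for 30 min at room temperature; reactions quenched with SDS loading buffer and resolved by SDS-PAGE.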

[2] = molecular target: T2, MAGL (Mus musculus, UniProt O35678); test: Mouse brain proteomes from inhibitor treated mice (oral gavage, brain proteomes analyzed 4 h after administration); format: in vivo, mouse (C57Bl/6J); conditions: brain proteome 4 h after administration, read-out: % Inh 5 mg/kg MGLL (Mouse)
T2 construct: from tissue; host or cells: brain of wild-type C57Bl/6J mice
T2 sequence (O35678 1-303): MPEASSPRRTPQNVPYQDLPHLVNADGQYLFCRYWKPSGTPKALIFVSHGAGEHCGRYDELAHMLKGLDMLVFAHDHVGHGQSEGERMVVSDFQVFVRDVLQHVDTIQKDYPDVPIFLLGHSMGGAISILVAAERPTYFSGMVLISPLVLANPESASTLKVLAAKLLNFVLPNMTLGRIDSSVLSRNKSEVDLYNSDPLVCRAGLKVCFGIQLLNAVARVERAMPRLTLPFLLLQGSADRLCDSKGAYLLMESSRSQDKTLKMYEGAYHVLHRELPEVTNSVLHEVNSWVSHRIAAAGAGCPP
Procedure, shortened: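 Wild-type C57Bl/6J mice dosed orally in polyethylene glycol vehicle; brains removed 4 h post-dose and brain proteomes prepared and analysed for MAGL and serine hydrolase activity by previously established methods.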

[3] = molecular target: T3, MGLL (Mus musculus, UniProt O35678); test: In vitro competitive activity-based protein profiling, mouse brain proteome; format: biochemical
T3 construct: Brain; from tissue; host or cells: mouse brain proteome
T3 sequence (O35678 1-303): T2 sequence (O35678 1-303)
Description: [Worded in the source for another species; this species is reported under the same test.] (§1) Proteomes (human prefrontal cortex or cell membrane fractions) (50 μL, 1.0 mg/mL total protein concentration) were preincubated with varying concentrations of inhibitors at 37° C. After 30 min, FP—Rh or HT-01 (1.0 μL, 50 μM in DMSO) was added and the mixture was incubated for another 30 min at room temperature. Reactions were quenched with SDS loading buffer (15 μL-4×) and run on SDS-PAGE.

[4] = molecular target: T4, ABHD6 (Mus musculus, UniProt Q8R2Y0); test: In vitro competitive activity-based protein profiling, mouse brain proteome, ABHD6; format: biochemical; conditions: mouse
T4 construct: Brain; from tissue; host or cells: mouse brain proteome
T4 sequence (Q8R2Y0 1-336): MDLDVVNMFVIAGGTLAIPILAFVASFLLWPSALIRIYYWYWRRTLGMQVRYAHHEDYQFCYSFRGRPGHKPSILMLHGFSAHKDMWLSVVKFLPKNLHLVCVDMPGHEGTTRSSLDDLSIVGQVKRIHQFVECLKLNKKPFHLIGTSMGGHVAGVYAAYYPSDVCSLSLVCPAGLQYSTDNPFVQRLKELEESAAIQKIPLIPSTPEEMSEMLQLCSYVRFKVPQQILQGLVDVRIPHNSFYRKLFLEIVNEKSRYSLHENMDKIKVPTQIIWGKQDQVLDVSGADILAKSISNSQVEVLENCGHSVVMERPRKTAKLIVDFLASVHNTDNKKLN
Description: [Worded in the source for another target; this target is reported under the same test.] as §1

[5] = PC3 proteome, read-out: IC50 MGLL PC3 (Human)
[6] = PFC (prefrontal cortex) proteome, read-out: IC50 MGLL PFC (Human)

Compound	IC50 [1, 5]	IC50 [1, 6]	inhibition at 5 mg/kg [2]	IC50 [3]	IC50 [4]	% Inh MGLL PFC (Human, μM) ([1]; PFC (prefrontal cortex) proteome)
O=C(OC(C(F)(F)F)C(F)(F)F)N1CCC2(CCCN2Cc2cc(C(F)(F)F)cc(C3(C(=O)O)CCCC3)c2)CC1 [Example 8, 1-(3-((8-(((1,1,1,3,3,3-Hexafluoropropan-2-yl)oxy)carbonyl)-1,8-diazaspiro[4.5]decan-1-yl)methyl)-5-(trifluoromethyl)phenyl)cyclopentane-1-carboxylic acid]	< 100 nM	< 100 nM	≥ 75%	< 100 nM	> 1000 nM	–
CC(=O)N1CC2(CCN(c3cc(C(F)(F)F)ccc3CN3CCN(C(=O)OC(C(F)(F)F)C(F)(F)F)CC3)C2)C1 [Example 180, 1,1,1,3,3,3-Hexafluoropropan-2-yl 4-(2-(2-acetyl-2,6-diazaspiro[3.4]octan-6-yl)-4-(trifluoromethyl)benzyl)piperazine-1-carboxylate]	< 100 nM	–	≥ 75%	< 100 nM	> 1000 nM	–
O=C(O)CN1CCN(c2cc(C(F)(F)F)ccc2CN2CCCC23CCN(C(=O)OC(C(F)(F)F)C(F)(F)F)CC3)CC1 [Example 3, 2-(4-(2-((8-(((1,1,1,3,3,3-Hexafluoropropan-2-yl)oxy)carbonyl)-1,8-diazaspiro[4.5]decan-1-yl)methyl)-5-(trifluoromethyl)phenyl)piperazin-1-yl)acetic acid]	< 100 nM	< 100 nM	≤ 25%	< 100 nM	> 1000 nM	### (### is ≥ 75%)
CCN1CCC2(CCN(c3cc(C(F)(F)F)ccc3CN3CCN(C(=O)OC(C(F)(F)F)C(F)(F)F)CC3)CC2)C1 [Example 183, 1,1,1,3,3,3-Hexafluoropropan-2-yl 4-(2-(2-ethyl-2,8-diazaspiro[4.5]decan-8-yl)-4-(trifluoromethyl)benzyl)piperazine-1-carboxylate]	< 100 nM	–	≤ 25%	< 100 nM	> 1000 nM	–
CS(=O)(=O)N1CCC2(CCN(c3cc(C(F)(F)F)ccc3CN3CCN(C(=O)OC(C(F)(F)F)C(F)(F)F)CC3)CC2)C1 [Example 185, 1,1,1,3,3,3-Hexafluoropropan-2-yl 4-(2-(2-(methylsulfonyl)-2,8-diazaspiro[4.5]decan-8-yl)-4-- (trifluoromethyl)benzyl)piperazine-1-carboxylate]	< 100 nM	< 100 nM	≥ 75%	< 100 nM	> 1000 nM	–
CS(=O)(=O)N1CCC2(CCN(c3cc(Cl)ccc3CN3CCN(C(=O)OC(C(F)(F)F)C(F)(F)F)CC3)CC2)C1 [Example 174, 1,1,1,3,3,3-Hexafluoropropan-4-(4-chloro-2-(2-(methylsulfonyl)-2,8-diazaspiro[4.5]decan-8-yl)benzyl)piperazine-1-carboxylate]	< 100 nM	–	≥ 75%	< 100 nM	> 1000 nM	–
